The source of these data is publication PMC10211317, “Identification of ARUK2002821 as an isoform-selective PI5P4Kα inhibitor” (RSC Medicinal Chemistry, 2023).

One data set addresses T1, PIK3CA(H1047L) (Homo sapiens, UniProt P42336, H1047L).
T1 construct: purchased DiscoverX (Eurofins Discovery)
As to the kind of experiment: KINOMEscan lipid kinase panel (DiscoverX). It is filed as binding. The arrangement: dose or concentration left out as unconfirmed. On the procedure:
(§1) generated using KINOMEscan™ technologya at DiscoverX. […]
(§2) a Data were generated at Eurofins Discovery using DiscoverX KINOMEscanTM technology. Streptavidin-coated magnetic beads were treated with biotinylated small molecule ligands for 30 minutes at room temperature to generate affinity resins for kinase assays. The liganded beads were blocked with excess biotin and washed with blocking buffer (SeaBlock (Pierce), 1% BSA, 0.05% Tween 20, 1 mM DTT) to remove unbound ligand and to reduce non-specific binding. Binding reactions were assembled by combining kinases, liganded affinity beads, and test compounds in 1x binding buffer (20% SeaBlock, 0.17x PBS, 0.05% Tween 20, 6 mM DTT). Test […]
(§3) The compounds were then diluted directly into the assays such that the final concentration of DMSO was 0.9%. All reactions performed in polypropylene 384-well plate. Each was a final volume of 0.02 ml. The assay plates were incubated at room temperature with shaking for […]
(§4) room temperature with shaking for 30 minutes. The kinase concentration in the eluates was measured by qPCR. […]

The next data set concerns the target T2, PIK3CA(E545A) (Homo sapiens, UniProt P42336, E545A).
T2 construct: purchased DiscoverX (Eurofins Discovery)
In words: KINOMEscan lipid kinase panel (DiscoverX). It is filed as binding. The arrangement: dose or concentration left out as unconfirmed. On the procedure: as §1, §2, §3, §4

Another data set addresses T3, PIK3CG (Homo sapiens, UniProt P48736).
T3 construct: purchased DiscoverX (Eurofins Discovery)
In words: KINOMEscan lipid kinase panel (DiscoverX). Type of data set: binding. The arrangement: dose or concentration left out as unconfirmed. On the procedure:
as §1, §2, §3, §4

For the next data set, the target named is T4, PIK3CA(E542K) (Homo sapiens, UniProt P42336, E542K).
T4 construct: purchased DiscoverX (Eurofins Discovery)
As to the kind of experiment: KINOMEscan lipid kinase panel (DiscoverX). Type of data set: binding. The arrangement: dose or concentration left out as unconfirmed. The procedure:
as §1, §2, §3, §4

For the next data set, the target named is T5, PIK3CB (Homo sapiens, UniProt P42338).
T5 construct: purchased DiscoverX (Eurofins Discovery)
As to the kind of experiment: KINOMEscan lipid kinase panel (DiscoverX). It is filed as binding. The arrangement: dose or concentration left out as unconfirmed. On the procedure:
as §1, §2, §3, §4

Another data set concerns the target T6, PIK3CA (Homo sapiens, UniProt P42336).
T6 construct: purchased DiscoverX (Eurofins Discovery)
As to the kind of experiment: KINOMEscan lipid kinase panel (DiscoverX). The arrangement: dose or concentration left out as unconfirmed. Type of data set: binding. On the procedure: as §1, §2, §3, §4

A further data set deals with T7, PIP5K2C (PI5P4KC) (Homo sapiens, UniProt Q8TBX8).
T7 construct: purchased Eurofins Discovery (DiscoverX KINOMEscan)
As to the kind of experiment: KINOMEscan lipid kinase panel (DiscoverX). It is filed as binding. The arrangement: dose or concentration left out as unconfirmed. On the procedure:
as §1, §2, §3, §4

The next data set concerns the target PIK4CB (Homo sapiens, UniProt Q9UBF8). As to the kind of experiment: KINOMEscan lipid kinase panel (DiscoverX). Type of data set: binding. The arrangement: dose or concentration left out as unconfirmed. The procedure: as §1, §2, §3, §4
The next data set addresses T8, PIK3CA(M1043I) (Homo sapiens, UniProt P42336, M1043I).
T8 construct: purchased DiscoverX (Eurofins Discovery)
In words: KINOMEscan lipid kinase panel (DiscoverX). Type of data set: binding. The arrangement: dose or concentration left out as unconfirmed. The procedure:
as §1, §2, §3, §4

The target of a further data set is T9, PIP5K1A (Homo sapiens, UniProt Q99755).
T9 construct: purchased DiscoverX (Eurofins Discovery)
In words: KINOMEscan lipid kinase panel (DiscoverX). Type of data set: binding. The arrangement: dose or concentration left out as unconfirmed. The procedure: as §1, §2, §3, §4

A further data set addresses T10, VPS34 (Homo sapiens, UniProt Q8NEB9).
T10 construct: purchased Eurofins Discovery (DiscoverX KINOMEscan)
In words: KINOMEscan lipid kinase panel (DiscoverX). Type of data set: binding. The arrangement: dose or concentration left out as unconfirmed. The procedure:
as §1, §2, §3, §4

A further data set concerns the target T11, PIK3C2G (Homo sapiens, UniProt O75747).
T11 construct: purchased DiscoverX (Eurofins Discovery)
In words: KINOMEscan lipid kinase panel (DiscoverX). It is filed as binding. The arrangement: dose or concentration left out as unconfirmed. On the procedure:
as §1, §2, §3, §4

The next data set has as its target T12, PIP5K1C (Homo sapiens, UniProt O60331).
T12 construct: purchased Eurofins Discovery (DiscoverX KINOMEscan)
In words: KINOMEscan lipid kinase panel (DiscoverX). Type of data set: binding. The arrangement: dose or concentration left out as unconfirmed. On the procedure:
as §1, §2, §3, §4

A further data set deals with T13, PIK3CA(C420R) (Homo sapiens, UniProt P42336, C420R).
T13 construct: purchased DiscoverX (Eurofins Discovery)
As to the kind of experiment: KINOMEscan lipid kinase panel (DiscoverX). It is filed as binding. The arrangement: dose or concentration left out as unconfirmed. On the procedure:
as §1, §2, §3, §4

The next data set has as its target T14, PIK3CA(E545K) (Homo sapiens, UniProt P42336, E545K).
T14 construct: purchased DiscoverX (Eurofins Discovery)
As to the kind of experiment: KINOMEscan lipid kinase panel (DiscoverX). The arrangement: dose or concentration left out as unconfirmed. It is filed as binding. On the procedure: as §1, §2, §3, §4

A further data set concerns the target T15, PIK3CA(I800L) (Homo sapiens, UniProt P42336, I800L).
T15 construct: purchased DiscoverX (Eurofins Discovery)
In words: KINOMEscan lipid kinase panel (DiscoverX). The arrangement: dose or concentration left out as unconfirmed. It is filed as binding. The procedure: as §1, §2, §3, §4

A further data set has as its target T16, PIK3CA(Q546K) (Homo sapiens, UniProt P42336, Q546K).
T16 construct: purchased DiscoverX (Eurofins Discovery)
As to the kind of experiment: KINOMEscan lipid kinase panel (DiscoverX). Type of data set: binding. The arrangement: dose or concentration left out as unconfirmed. On the procedure: as §1, §2, §3, §4

The target of the next data set is T17, PIKFYVE (Homo sapiens, UniProt Q9Y2I7).
T17 construct: purchased DiscoverX (Eurofins Discovery)
As to the kind of experiment: KINOMEscan lipid kinase panel (DiscoverX). It is filed as binding. The arrangement: dose or concentration left out as unconfirmed. On the procedure: as §1, §2, §3, §4

The next data set addresses T18, PIK3CD (Homo sapiens, UniProt O00329).
T18 construct: purchased DiscoverX (Eurofins Discovery)
As to the kind of experiment: KINOMEscan lipid kinase panel (DiscoverX). Type of data set: binding. The arrangement: dose or concentration left out as unconfirmed. The procedure:
as §1, §2, §3, §4

A further data set concerns the target T19, PIK3CA(H1047Y) (Homo sapiens, UniProt P42336, H1047Y).
T19 construct: purchased DiscoverX (Eurofins Discovery)
In words: KINOMEscan lipid kinase panel (DiscoverX). Type of data set: binding. The arrangement: dose or concentration left out as unconfirmed. On the procedure:
as §1, §2, §3, §4

The nature of data set [1]: Turbidimetric aqueous solubility. Type of data set: physicochemical. To be noted: PBS buffer; pH 7.4 in aqueous buffer. The procedure: (§5) ADMET experimental methods […]
Turbidimetric aqueous solubility: analysis was performed by Cyprotex Discovery. Compound in DMSO at 10 mM was serially diluted to solutions of 0.1, 0.3, 1 and 3 mM in DMSO, then further diluted 1 in 100 in buffer (0.01 M PBS, pH 7.4, 1% DMSO final). 7 replicate wells of each dilution were equilibrated for 2 hours at 37 °C before absorbance is measured at 620 nm. The solubility is estimated from the concentration of test compound that produces an increase in absorbance above vehicle control (1% DMSO in buffer). […]

Data set [2] in a line: Mouse microsomal stability. Type of data set: in vitro ADME. Particulars: mouse liver microsomes; read-out: MLM t1/2. The procedure: as §5
Mouse Microsomal stability: analysis was performed by Cyprotex Discovery. Briefly, test compounds in DMSO were incubated at a concentration of 1 µM (0.25% DMSO final) with mouse hepatic microsomes (0.5 mg protein/mL) in the presence of NADPH (1 mM) at 37 °C. Aliquots were taken at time intervals (0, 5, 15, 30 and 45 min) and stopped by transferring into acetonitrile, then analysed using generic LC-MS/MS conditions for compound remaining, allowing the determination of the half-life for the compound.
For orientation: Microsomes from liver hold many membrane-bound enzymes, among them those of drug oxidation.

Values after ≈ are worked out from the molar mass of the structure shown.

T8 sequence (P42336 whole entry M1043I): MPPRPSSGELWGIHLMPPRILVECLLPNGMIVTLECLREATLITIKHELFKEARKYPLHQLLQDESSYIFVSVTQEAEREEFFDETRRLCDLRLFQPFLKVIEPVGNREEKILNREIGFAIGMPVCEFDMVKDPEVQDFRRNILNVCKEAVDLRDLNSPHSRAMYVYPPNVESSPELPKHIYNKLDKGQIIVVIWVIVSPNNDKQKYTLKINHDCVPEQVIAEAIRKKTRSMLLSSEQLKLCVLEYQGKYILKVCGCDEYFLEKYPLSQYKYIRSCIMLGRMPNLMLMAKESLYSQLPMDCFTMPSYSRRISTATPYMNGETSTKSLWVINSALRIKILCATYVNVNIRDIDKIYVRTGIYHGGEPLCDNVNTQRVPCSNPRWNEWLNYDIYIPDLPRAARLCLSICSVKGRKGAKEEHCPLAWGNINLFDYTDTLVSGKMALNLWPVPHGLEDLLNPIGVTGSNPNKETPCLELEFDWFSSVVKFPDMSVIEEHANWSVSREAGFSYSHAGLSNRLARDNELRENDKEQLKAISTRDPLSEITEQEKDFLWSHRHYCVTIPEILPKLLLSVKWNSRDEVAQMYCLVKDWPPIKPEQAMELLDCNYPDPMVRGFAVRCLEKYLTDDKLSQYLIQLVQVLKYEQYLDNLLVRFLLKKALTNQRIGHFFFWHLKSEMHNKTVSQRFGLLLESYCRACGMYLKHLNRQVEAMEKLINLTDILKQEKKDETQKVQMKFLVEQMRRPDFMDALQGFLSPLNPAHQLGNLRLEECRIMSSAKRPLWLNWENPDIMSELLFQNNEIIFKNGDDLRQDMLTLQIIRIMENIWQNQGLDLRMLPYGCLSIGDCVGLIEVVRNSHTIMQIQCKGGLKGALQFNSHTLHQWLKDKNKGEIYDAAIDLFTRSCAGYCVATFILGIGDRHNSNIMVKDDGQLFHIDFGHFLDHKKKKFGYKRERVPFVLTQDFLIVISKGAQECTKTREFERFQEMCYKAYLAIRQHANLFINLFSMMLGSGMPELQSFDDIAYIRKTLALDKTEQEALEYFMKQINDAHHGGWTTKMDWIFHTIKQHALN
T18 sequence (O00329 whole entry): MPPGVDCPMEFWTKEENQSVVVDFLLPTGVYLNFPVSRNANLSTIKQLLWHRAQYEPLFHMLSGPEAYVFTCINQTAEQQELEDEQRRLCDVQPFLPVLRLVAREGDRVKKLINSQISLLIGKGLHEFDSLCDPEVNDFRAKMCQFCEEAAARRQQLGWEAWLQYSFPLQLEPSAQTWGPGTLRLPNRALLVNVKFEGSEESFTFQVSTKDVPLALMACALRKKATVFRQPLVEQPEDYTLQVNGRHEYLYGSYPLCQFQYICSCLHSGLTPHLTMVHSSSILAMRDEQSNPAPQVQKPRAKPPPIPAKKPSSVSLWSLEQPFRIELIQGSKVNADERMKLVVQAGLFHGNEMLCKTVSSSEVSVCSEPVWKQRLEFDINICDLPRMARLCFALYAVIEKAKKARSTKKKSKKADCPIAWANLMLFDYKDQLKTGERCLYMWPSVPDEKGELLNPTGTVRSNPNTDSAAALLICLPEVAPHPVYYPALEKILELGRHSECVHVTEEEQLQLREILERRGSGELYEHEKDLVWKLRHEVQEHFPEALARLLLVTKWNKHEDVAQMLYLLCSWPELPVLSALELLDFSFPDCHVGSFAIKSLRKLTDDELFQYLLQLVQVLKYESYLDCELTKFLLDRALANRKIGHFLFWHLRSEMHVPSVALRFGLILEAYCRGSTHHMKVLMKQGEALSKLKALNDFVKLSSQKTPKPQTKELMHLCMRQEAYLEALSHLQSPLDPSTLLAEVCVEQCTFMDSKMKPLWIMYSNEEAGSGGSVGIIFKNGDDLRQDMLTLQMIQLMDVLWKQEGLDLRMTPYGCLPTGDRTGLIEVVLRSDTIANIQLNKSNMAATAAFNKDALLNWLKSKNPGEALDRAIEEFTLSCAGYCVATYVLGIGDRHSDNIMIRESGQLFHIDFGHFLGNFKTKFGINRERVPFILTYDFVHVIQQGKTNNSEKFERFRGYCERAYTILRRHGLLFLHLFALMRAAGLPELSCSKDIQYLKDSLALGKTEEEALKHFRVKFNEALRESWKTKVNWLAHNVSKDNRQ
T16 sequence (P42336 whole entry Q546K): as the sequence (P42336 whole entry M1043I) above, with Q546K, I1043M counted along it
Sequence of PIK4CB (Q9UBF8 whole entry): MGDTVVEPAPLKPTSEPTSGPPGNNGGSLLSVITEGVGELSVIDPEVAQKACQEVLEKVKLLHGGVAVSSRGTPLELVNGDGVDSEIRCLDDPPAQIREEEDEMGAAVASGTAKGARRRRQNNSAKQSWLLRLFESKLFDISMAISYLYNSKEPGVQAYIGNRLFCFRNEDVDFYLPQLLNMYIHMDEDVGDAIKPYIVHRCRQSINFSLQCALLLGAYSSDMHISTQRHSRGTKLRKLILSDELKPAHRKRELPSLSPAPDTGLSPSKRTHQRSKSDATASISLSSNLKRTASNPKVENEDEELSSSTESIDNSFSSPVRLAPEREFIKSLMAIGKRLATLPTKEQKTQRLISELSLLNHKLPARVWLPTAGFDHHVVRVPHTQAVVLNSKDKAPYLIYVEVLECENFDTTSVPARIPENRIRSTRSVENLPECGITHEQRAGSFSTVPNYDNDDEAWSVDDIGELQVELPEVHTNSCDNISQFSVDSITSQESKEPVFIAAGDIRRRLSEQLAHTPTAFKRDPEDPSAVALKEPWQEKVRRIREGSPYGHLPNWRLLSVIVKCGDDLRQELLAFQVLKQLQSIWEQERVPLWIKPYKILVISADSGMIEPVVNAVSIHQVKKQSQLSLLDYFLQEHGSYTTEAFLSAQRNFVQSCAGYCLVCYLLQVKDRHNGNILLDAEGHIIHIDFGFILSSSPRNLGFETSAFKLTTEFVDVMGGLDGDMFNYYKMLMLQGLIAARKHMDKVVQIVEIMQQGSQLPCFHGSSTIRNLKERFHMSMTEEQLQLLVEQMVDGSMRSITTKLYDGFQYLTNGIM
T12 sequence (O60331 whole entry): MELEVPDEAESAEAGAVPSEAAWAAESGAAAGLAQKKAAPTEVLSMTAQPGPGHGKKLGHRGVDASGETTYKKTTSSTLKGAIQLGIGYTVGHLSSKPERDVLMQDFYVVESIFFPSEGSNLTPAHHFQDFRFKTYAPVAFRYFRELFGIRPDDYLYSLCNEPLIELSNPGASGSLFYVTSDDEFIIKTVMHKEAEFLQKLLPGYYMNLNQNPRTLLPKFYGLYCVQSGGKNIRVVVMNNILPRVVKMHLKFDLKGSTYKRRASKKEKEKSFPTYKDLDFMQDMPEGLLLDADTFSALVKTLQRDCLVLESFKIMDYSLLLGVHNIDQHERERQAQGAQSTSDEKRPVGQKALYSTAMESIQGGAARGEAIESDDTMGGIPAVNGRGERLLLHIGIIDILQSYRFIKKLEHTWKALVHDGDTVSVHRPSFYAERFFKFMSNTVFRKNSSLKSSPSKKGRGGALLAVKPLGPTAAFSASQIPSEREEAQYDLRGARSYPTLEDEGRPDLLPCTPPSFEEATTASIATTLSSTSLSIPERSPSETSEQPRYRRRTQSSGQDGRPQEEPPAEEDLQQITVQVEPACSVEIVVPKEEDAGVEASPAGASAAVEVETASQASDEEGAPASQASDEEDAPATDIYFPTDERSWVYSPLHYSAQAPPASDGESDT
T7 sequence (Q8TBX8 whole entry): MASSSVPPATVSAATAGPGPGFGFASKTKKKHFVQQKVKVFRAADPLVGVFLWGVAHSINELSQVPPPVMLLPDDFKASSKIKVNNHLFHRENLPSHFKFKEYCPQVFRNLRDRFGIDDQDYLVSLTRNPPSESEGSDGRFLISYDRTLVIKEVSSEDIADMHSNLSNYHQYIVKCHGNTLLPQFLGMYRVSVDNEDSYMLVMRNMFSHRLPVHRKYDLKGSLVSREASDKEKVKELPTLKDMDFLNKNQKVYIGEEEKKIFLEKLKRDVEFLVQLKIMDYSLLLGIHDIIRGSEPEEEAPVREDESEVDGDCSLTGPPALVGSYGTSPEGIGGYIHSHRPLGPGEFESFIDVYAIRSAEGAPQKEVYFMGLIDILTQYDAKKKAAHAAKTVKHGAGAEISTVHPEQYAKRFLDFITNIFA

In the case of `CC1(C)CN(c2ncc(C(=O)Nc3cccc(C(F)(F)F)c3)c(N)n2)C(=O)N1` [compound 7, Imanixil], the “% activity remaining” value at PIK3CA(H1047L), on PIK3CA(E545A), on PIK3CG, at PIK3CA(E542K), at PIK3CB and at PIK3CA was 100% each time. For the same molecule, the “% activity remaining” value at PIP5K2C (PI5P4KC) was found to be 100%; on PIK4CB, 98%; at PIK3CA(M1043I), 100%; on PIP5K1A, 99%; on VPS34, 100%; at PIK3C2G, 100%. Also, the “% activity remaining” value at PIP5K1C, at PIK3CA(C420R), at PIK3CA(E545K), on PIK3CA(I800L), on PIK3CA(Q546K) and at PIKFYVE was 100% throughout. The “% activity remaining” value on PIK3CD worked out at 100%; at PIK3CA(H1047Y) it was 95%.

In the case of `COc1ccc(Nc2ncnc3c2ccn3-c2ccc(C)c(C)c2)cc1Cl` [compound 36], the concentration in solution in data set [1] (solubility at 2 h) was 3 µM (≈ 1.14 µg/mL). Besides, in data set [2], the half-life at 1 µM was found to be 11 min.
